What is called EC50 is the midpoint of the concentration-response curve. One may read the IC50 as the concentration at which inhibition is half-maximal. High values mean lower potency, low ones higher potency.

Calls of active or inactive are those of the source.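 The calls were made as follows: active = compounds giving half or more protection of infected cells from virus-caused growth loss, again on retest; inactive = the rest.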

The experiment deals with CEM cells HIV-1 protection, formazan growth assay. Description: NCI AIDS Antiviral Assay. The conditions noted are these: for IC50: measured here: growth of uninfected CEM cells. In short, it runs like this:
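Five concentrations of each compound were applied to infected and uninfected human CEM cells. Protection from HIV-1 was judged from growth measured with a soluble formazan assay.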

Regarding `CCOC(=O)c1c(Br)c(-c2ccc([N+](=O)[O-])cc2)c(Br)n1C`, the EC50 is > 200 µM and the half-inhibitory concentration (IC50) came out at 39.8 µM.
On to `CC(=O)N(CCc1ccccc1)C(C)(C#N)c1ccccc1` (stereo not drawn), for which the EC50 is > 200 µM and the IC50 is > 200 µM.
With `O=c1[nH]nnc2ccccc12`, the EC50 is > 245 µM and the IC50 was > 245 µM.
With `COC(CNC(=O)C(C)NC(=O)/C=C/c1ccccc1)OC` (stereo not drawn), the outcome was inactive.
For the compound `O=C(O)CCC1CCc2cccc3oc(C(=O)O)c1c23` (stereo not drawn), the result was inactive.
With `CCC(C)OC(=O)/C(Br)=C1/OC(=O)c2ccccc2-c2ccccc21` (stereo not drawn), the EC50 was > 200 µM and the IC50 is 47.9 µM.
With `Cc1ccc(N2C(=O)C3c4[nH]c5ccc(C)cc5c4C4CCC(C(C)(C)C)CC4C3C2=O)cc1` (stereo not drawn), the EC50 is > 200 µM and the IC50 was found to be 13.8 µM.
In the case of `O=C1CCC2(c3ccc(Cl)cc3)Nc3cc(Cl)ccc3N12` (stereo not drawn), the result was inactive.
For the compound `Nc1nc(NCc2ccccc2)cc(NCc2ccccc2)n1`, the EC50 was > 20 µM and the IC50 is 2.75 µM.
Turning to `CC1C(c2ccccc2O)c2cc3c(cc2OC1N1CCOCC1)OCO3` (stereo not drawn), the EC50 is > 200 µM and the concentration for half-maximal inhibition (IC50) was determined as 42.7 µM.
With `Nc1c(-c2ccccc2)c2ccc([N+](=O)[O-])cc2c(=O)n1-c1cccc(C(=O)O)c1`, the EC50 was > 200 µM and the IC50 was found to be 135 µM.
With `C=C1CN(S(=O)(=O)c2ccc(C)cc2)CCCN(CC2CCCCC2)CCCN(S(=O)(=O)c2ccc(C)cc2)C1`, the EC50 is > 46.8 µM and the IC50 came out at 1.17 µM.
Take `COc1ccc(/C=C/C(=O)c2sc(NC(=S)NC(=O)c3ccc(Cl)cc3)nc2C)cc1OC`: the EC50 is > 37.2 µM and the IC50 is > 37.2 µM.
As to `COc1ccc(-c2c(C#N)c(-c3ccccc3)n(NS(=O)(=O)c3ccccc3)c(=O)c2C#N)cc1`, the EC50 was > 200 µM and the IC50 came to 44.7 µM.
On to `CCOc1ccc(N2C(=O)C3c4[nH]c5ccccc5c4C4CCC(C(C)(C)C)CC4C3C2=O)cc1` (stereo not drawn), for which the EC50 is > 2.19 µM and the IC50 is > 2.19 µM.
`O=C(CCCN1CCC2(CC1)C(=NC1CCCCC1)NC(=O)N2c1ccccc1)c1ccc(F)cc1`: the EC50 was > 200 µM and the IC50 was 93.3 µM.
Consider `CC(=O)NC(CCCNC(=O)N(CCCl)N=O)C(=O)NCc1ccccc1` (stereo not drawn), for which the EC50 was > 631 µM and the IC50 came to 69.2 µM.
`Cc1cccc(NC(=S)Nc2ccc(Cl)cc2)n1`: the EC50 was > 200 µM and the IC50 was > 200 µM.
On to `CCOC(=O)/C(N=Nc1ccc(-n2c(C)nc3ccccc3c2=O)cc1)=C(/C)O`, for which the EC50 is > 200 µM and the 50% inhibitory concentration (IC50) was found to be 151 µM.
The matching figures for `O=C(O)c1cccc(Nc2ccccc2C(=O)O)c1`: > 513 µM and > 513 µM.
Take `N#C/C(=C\c1ccc(O)c(O)c1)C(=O)NCCCNC(=O)/C(C#N)=C/c1ccc(O)c(O)c1`: the EC50 was > 200 µM and the half-inhibitory concentration (IC50) is 66.1 µM.
For the compound `CCNC(=S)Nc1c(C#N)c2n(c1C(=O)OCC)CCCCC2`, the EC50 is > 200 µM and the IC50 is > 200 µM.
Take `O=[N+]([O-])c1cccc(S(=O)(=O)OCn2ncc3ccc([N+](=O)[O-])cc32)c1`: the EC50 was > 200 µM and the concentration for half-maximal inhibition (IC50) stood at 151 µM.
Turning to `COc1cccc(C2CC23C(=O)NC(=O)NC3=O)c1` (stereo not drawn), the EC50 was > 100 µM and the IC50 was > 100 µM.
With `CC[C@@]1(OC(=O)C(N)CCCCN)C(=O)OCc2c1cc1n(c2=O)Cc2cc3ccccc3nc2-1` (stereo partly drawn), the EC50 was > 10 µM and the concentration for half-maximal inhibition (IC50) came to 0.0112 µM.
With `NC(=O)NCCCC(NC(=O)OCCCCCCn1ccc(=O)[nH]c1=O)C(=O)O` (stereo not drawn), the EC50 is > 200 µM and the IC50 turned out to be 32.4 µM.
Turning to `COc1ccc(-c2c3c(nc4nc(SCC(=O)c5ccc(Br)cc5)nc(N)c24)CCCC3)cc1OC`, the EC50 is > 200 µM and the half-maximal inhibitory concentration (IC50) turned out to be 151 µM.
Regarding `COC(OC)c1cccc2c1C1(O)CCC3(CC21)OCCCCO3` (stereo not drawn), the EC50 is > 200 µM and the 50% inhibitory concentration (IC50) is > 200 µM.
Consider `NC(=O)c1ccc(NC(=O)c2ccccc2SC(=O)CCCC[n+]2ccccc2)cc1`, for which the half-maximal effective concentration (EC50) is 7.41 µM and the half-inhibitory concentration (IC50) is 15.8 µM.
The matching figures for `O=C(C1OC1c1ccc([N+](=O)[O-])cc1)C12CC3CC(CC(C3)C1)C2` (stereo not drawn): > 200 µM and 12.3 µM.
The matching figures for `CCN(CC)C(=S)N/N=C/c1cc([N+](=O)[O-])ccc1O`: > 200 µM and 3.63 µM.
With `[C-]#[O+].[C-]#[O+].[C-]#[O+].[Mo].c1ccc(P(CC[PH+](CC[PH+](CC[PH+](c2ccccc2)c2ccccc2)c2ccccc2)c2ccccc2)c2ccccc2)cc1` (stereo not drawn), the EC50 was > 6.17 µM and the IC50 is > 6.17 µM.
As for `O=C(c1ccc(Cl)cc1)C1OC12C(=O)Nc1c(Cl)cc(Cl)cc12` (stereo not drawn), the EC50 is > 19.5 µM and the IC50 is > 19.5 µM.
As to `CN1COc2c(n(C)c(=O)[nH]c2=O)C1`, the EC50 is > 200 µM and the IC50 came to 120 µM.
`CCCCCCCCCCCCCCCCN1CCCCCC1=O`: the EC50 was > 77.6 µM and the IC50 is > 77.6 µM.
For the compound `O=C(O)c1cc(N=Nc2ccc(N=Nc3ccc(S(=O)(=O)O)cc3)cc2)ccc1O`, the outcome was inactive.
Consider `COC(=O)C12CC3CC(CC(C(=O)O)(C3)C1)C2`, for which the EC50 is > 759 µM and the IC50 is > 759 µM.
`O=C(O)[C@H](CCC[C@H]1C(=O)O[C@H](c2ccccc2)[C@H](c2ccccc2)N1C(=O)OCc1ccccc1)N[C@@H](c1ccccc1)[C@H](O)c1ccccc1`: the EC50 is > 89.1 µM and the concentration for half-maximal inhibition (IC50) is 77.6 µM.
For `CCCc1cc(=O)oc2c3c(c4c(c12)OC(C)(C)C=C4)O[C@H](C)[C@@H](C)C3O` (stereo partly drawn), the 50% effective concentration (EC50) was 2.4 µM and the IC50 came to 11.7 µM.
For `Cc1cc(C)c2c(c1)sc1n[nH]c(=S)n12`, the EC50 was > 63.1 µM and the half-maximal inhibitory concentration (IC50) was > 63.1 µM.
Regarding `O=C1CCC(c2nc3cc(Cl)ccc3o2)C(=O)N1` (stereo not drawn), the EC50 was > 245 µM and the IC50 is > 245 µM.
For the compound `CCOC(=O)c1ccc(N2C(=O)c3cccc4cccc(c34)C2=O)cc1`, the EC50 is > 100 µM and the half-maximal inhibitory concentration (IC50) is > 100 µM.
Take `c1ccc(CNCCCNCCCCNCCCNCc2ccccc2)cc1`: the EC50 is > 15.1 µM and the half-inhibitory concentration (IC50) is 1.62 µM.
As to `Cc1cc2c(oc(=O)c3cc(C)sc32)s1`, the EC50 was > 42.7 µM and the IC50 was > 42.7 µM.
For the compound `CCN(CC)CC(C)C1NS(=O)(=O)c2ccccc21` (stereo not drawn), the EC50 is > 200 µM and the IC50 is > 200 µM.
Consider `NS(=O)(=O)c1cc[c]([Sb]=[O])cc1`, for which the EC50 is > 200 µM and the IC50 was determined as 61.7 µM.
As for `CN(C)c1ccc(/C=C2\C=Cc3ccccc32)cc1F`, the EC50 was > 200 µM and the IC50 came to 120 µM.
Take `NC(=O)c1ccc2c(c1)S(=O)(=O)c1ccccc1C2=O`: the EC50 is > 200 µM and the IC50 was > 200 µM.
With `C[N+](C)(C)CCC(=O)N1C/C(=C\c2ccccc2)C(=O)/C(=C/c2ccccc2)C1`, the EC50 is > 200 µM and the IC50 was determined as 2.82 µM.
With `O=C(NCCCNCCCCNCCCNC(=O)c1cc(-c2ccccc2)nc2ccccc12)c1cc(-c2ccccc2)nc2ccccc12`, the EC50 is > 20 µM and the IC50 came to 3.8 µM.
For the compound `COc1ccc(/C=C/c2ccc3ccccc3[n+]2C)cc1OC`, the EC50 is 0.0631 µM and the 50% inhibitory concentration (IC50) amounted to 52.5 µM.
Take `Clc1ccc(CNCCCNCc2ccc(Cl)c(Cl)c2)cc1Cl`: the EC50 is > 200 µM and the IC50 was 15.8 µM.
`C=C1C2CC[C@@]3(CC[C@@H]4[C@@]5(C)CCC[C@@]4(C=[N+](CCOC(C)=O)C5)[C@@H]3C2)[C@@H]1OC(C)=O`: the result was inactive.
Turning to `c1ccc2c(c1)nc(NC1CCCC1)c1[nH]c(C3CCCC3)nc12`, the EC50 is > 200 µM and the IC50 stood at 25.1 µM.
In the same order, the values of `O=C1CC2(C[C@@H]3CCCCCCCCC[C@@H](C3)C2)N1` (stereo partly drawn) are > 200 µM and 40.7 µM.
In the case of `Clc1cccc(-c2sc(-c3ccsc3)cc2Cc2ccsc2)c1`, the result was inactive.
With `CC(C)(SSC(C)(C)C(N)C(=O)O)C(N)C(=O)O` (stereo not drawn), the EC50 was > 427 µM and the IC50 was > 427 µM.
Take `C/C(CC(=O)NC1=CC=C(NC(=O)C/C(C)=N\Nc2ccccc2)CC1)=N/Nc1ccccc1`: the EC50 is > 56.2 µM and the IC50 was > 56.2 µM.
On to `CCOC1(OCC)CC2C(=O)CCCC21OC(C)=O` (stereo not drawn), for which the EC50 is > 229 µM and the 50% inhibitory concentration (IC50) stood at 132 µM.
`O=C(CCn1ccnc1[N+](=O)[O-])NCCCn1ccnc1[N+](=O)[O-]`: the EC50 was > 200 µM and the half-maximal inhibitory concentration (IC50) is > 200 µM.
Consider `COc1ccc(NCn2nc(CCCCCCCCc3nn(CNc4ccc(OC)cc4)c(=S)o3)oc2=S)cc1`, for which the EC50 was > 200 µM and the IC50 was 158 µM.
In the same order, the values of `Cc1ccc(N2C(N)=C(C#N)C(C#N)(C#N)C2c2ccccc2)cc1` (stereo not drawn) are > 200 µM and 2.82 µM.
On to `CN1C(=O)Cn2c(n[nH]c(=O)c2=O)-c2cc(Cl)ccc21`, for which the EC50 is > 302 µM and the IC50 is > 302 µM.
For the compound `[Cl][Pt+2][Cl].[NH-]C1CCCC1[NH-]` (stereo not drawn), the EC50 was > 200 µM and the IC50 is 49 µM.
`COC(=O)c1c(C#N)c(N)nc2c1CCC2`: the EC50 was > 200 µM and the IC50 is > 200 µM.
`CCC[CH2][Sn]([CH2]CCC)([S]c1cccc2cccnc12)[S]c1cccc2cccnc12`: the outcome was inactive.
Regarding `CC(C)CN(C[C@@H](O)[C@H](Cc1ccccc1)NC(=O)[C@H](CC(N)=O)NC(=O)c1ccc2ccccc2n1)C(=O)NC(C)(C)C`, the result was active and the IC50 is 93.3 µM.
With `N/C(=N\N=C\c1cc(I)cc(I)c1O)NO`, the EC50 is > 200 µM and the IC50 came out at 10.5 µM.
Regarding `Cc1cc2c(cc1C)[n+](=O)c(N1CCN(c3ccc([N+](=O)[O-])cc3)CC1)c(C#N)n2[O-]`, the EC50 was > 50.1 µM and the IC50 is > 50.1 µM.
Consider `COc1ccc2c(c1)OC[C@@H]1c3ccc(OCc4ccccc4)cc3O[C@H]21`, for which the concentration giving a half-maximal response (EC50) was 46.8 µM and the IC50 is > 200 µM.

For the origin of these results see PubChem BioAssay AID179 (DTP/NCI, 2004).
